Patent US6451812B1, “Farnesyl protein transferase inhibitors for treating arthropathies” (Janssen Pharmaceutica N.V., priority 1998, dated 2002)
“And” between values parts separate entries of the source, which are not always exact repeats. Equal entries are not always repeated.

Test system: DBA1/J mice
Experiment: Collagen type II induced arthritis, therapeutic treatment (Example 2)
Type: in vivo
Details: for Ankylosis score / Incidence of ankylosis (% of animals affected) / Incidence of arthritis (% of animals affected) / Mean Arthritic Score / Mean number of affected paws: treated day 30-49
Experimental: Male DBA1/J mice were immunized intradernally with collagen type II emulsified in complete Freund's Adjuvant on day 0 and day 21. Treatment of mice was started on day 30 (10 animals/treatment group; the animals were randomized so that both groups had similar arthritic symptoms at the start). Mice were treated orally with vehicle [DMSO: cremophor: 0.9% NaCl solution, 1:1:8 (v:v:v)] or compound 75 at a dose of 100 mg/kg. Three times per week symptoms of arthritis were scored. Animals were treated till day 49, at day 50 animals were sacrificed, blood was collected for analysis of anti-collagen antibodies, and […].
Trained lab personnel evaluated the severity and incidence of the arthritic symptoms at regular intervals without knowing which animals had received vehicle or drug.
In Table 14, the mean arthritic score is shown. For each paw, a score ranging from 0 (normal) to 2 (maximal redness and swelling) is given. The score for the 4 paws is summed up and averaged for the 10 animals per group (=Mean arthritic score).
Table 16 summarizes the results of the observations for the occurrence of ankylosis as the arthritis progresses. Each paw is scored as follows: 0 for no ankylosis, 1 for ankylosis. Again the results for the four paws are summed up and averaged for the 10 animals. Ankylosis starts to occur around day 30. During the whole treatment period, ankylosis is lower in the drug treated group than in the vehicle treated group.
In table 19, the radiographic score of the individual mice is depicted. For each paw, a score ranging from 0 (normal) to 2 (deformation of the whole paw was given. The scores of the four paws are summed up.

[1] = 100 mg/kg orally from day 30, versus vehicle
[2] = day 22 after immunization, 100 mpk orally
[3] = day 24 after immunization, 100 mpk orally
[4] = day 28 after immunization, 100 mpk orally
[5] = day 29 after immunization, 100 mpk orally
[6] = day 31 after immunization, 100 mpk orally
[7] = day 34 after immunization, 100 mpk orally
[8] = day 36 after immunization, 100 mpk orally
[9] = day 38 after immunization, 100 mpk orally
[10] = day 41 after immunization, 100 mpk orally
[11] = day 43 after immunization, 100 mpk orally
[12] = day 45 after immunization, 100 mpk orally
[13] = day 48 after immunization, 100 mpk orally
[14] = day 50 after immunization, 100 mpk orally

With `Cn1cncc1C(N)(c1ccc(Cl)cc1)c1ccc2c(c1)c(-c1cccc(Cl)c1)cc(=O)n2C` (single isomer, unassigned; (+)) [Compound 75, (+)-6-[amino(4-chlorophenyl)(1-methyl-1H-imidazol-5-yl)methyl]-4-(3-chlorophenyl)-1-methyl-2(1H)-quinolinone] the “effect on mean arthritic score (in words)” value [1] was “clearly suppresses the arthritic score”, the “effect on mean number of affected paws (in words)” value [1] was “reduces that number” and the lethalities (100 mg/kg orally, day 30-49) was “no lethalities were observed”. The signs of toxicity (100 mg/kg orally, day 30-49) was “did not show any signs of toxicity”, the “Radiographic score, Average” value (average of 10 mice, 100 mpk orally, treated day 30-49, radiographs at day 50) was 2.3 and the Ankylosis score [2] was 0.00. The “Incidence of ankylosis (% of animals affected)” value [2] was 0%, the “Incidence of arthritis (% of animals affected)” value [2] was 0% and the “Mean Arthritic Score” value [2] was 0.00. For the same compound, the “Mean number of affected paws” value [2] was 0.00, the Ankylosis score [3] was 0.00 and the “Incidence of ankylosis (% of animals affected)” value [3] was 0%. For the same compound, the “Incidence of arthritis (% of animals affected)” value [3] was 10%, the “Mean Arthritic Score” value [3] was 0.03 and the “Mean number of affected paws” value [3] was 0.10. For the same compound, the Ankylosis score [4] was 0.00, the “Incidence of ankylosis (% of animals affected)” value [4] was 0% and the “Incidence of arthritis (% of animals affected)” value [4] was 90%. The “Mean Arthritic Score” value [4] was 3.50, the “Mean number of affected paws” value [4] was 2.40 and the Ankylosis score [5] was 0.00. For the same compound, the “Incidence of ankylosis (% of animals affected)” value [5] was 0%, the “Incidence of arthritis (% of animals affected)” value [5] was 100% and the “Mean Arthritic Score” value [5] was 4.25. The “Mean number of affected paws” value [5] was 2.70, the Ankylosis score [6] was 0.80 and the “Incidence of ankylosis (% of animals affected)” value [6] was 60%. For the same compound, the “Incidence of arthritis (% of animals affected)” value [6] was 100%, the “Mean Arthritic Score” value [6] was 4.03 and the “Mean number of affected paws” value [6] was 2.80. The Ankylosis score [7] was 2.50, the “Incidence of ankylosis (% of animals affected)” value [7] was 90% and the “Incidence of arthritis (% of animals affected)” value [7] was 100%. The “Mean Arthritic Score” value [7] was 3.80, the “Mean number of affected paws” value [7] was 2.60 and the Ankylosis score [8] was 2.40. The “Incidence of ankylosis (% of animals affected)” value [8] was 90%, the “Incidence of arthritis (% of animals affected)” value [8] was 90% and the “Mean Arthritic Score” value [8] was 3.00. For the same compound, the “Mean number of affected paws” value [8] was 2.20, the Ankylosis score [9] was 2.60 and the “Incidence of ankylosis (% of animals affected)” value [9] was 100%. For the same compound, the “Incidence of arthritis (% of animals affected)” value [9] was 90%, the “Mean Arthritic Score” value [9] was 3.20 and the “Mean number of affected paws” value [9] was 2.60. For the same compound, the Ankylosis score [10] was 1.70, the “Incidence of ankylosis (% of animals affected)” value [10] was 70% and the “Incidence of arthritis (% of animals affected)” value [10] was 90%. For the same compound, the “Mean Arthritic Score” value [10] was 3.45, the “Mean number of affected paws” value [10] was 2.40 and the Ankylosis score [11] was 2.20. The “Incidence of ankylosis (% of animals affected)” value [11] was 80%, the “Incidence of arthritis (% of animals affected)” value [11] was 90% and the “Mean Arthritic Score” value [11] was 2.15. The “Mean number of affected paws” value [11] was 2.20, the Ankylosis score [12] was 1.90 and the “Incidence of ankylosis (% of animals affected)” value [12] was 80%. For the same compound, the “Incidence of arthritis (% of animals affected)” value [12] was 100%, the “Mean Arthritic Score” value [12] was 1.33 and the “Mean number of affected paws” value [12] was 1.90. For the same compound, the Ankylosis score [13] was 2.10, the “Incidence of ankylosis (% of animals affected)” value [13] was 90% and the “Incidence of arthritis (% of animals affected)” value [13] was 60%. The “Mean Arthritic Score” value [13] was 1.58, the “Mean number of affected paws” value [13] was 1.50 and the “Incidence of arthritis (% of animals affected)” value (day 50 after immunization (end of the treatment period), 100 mpk orally) was 60%. The Ankylosis score [14] was 0.80, the “Incidence of ankylosis (% of animals affected)” value [14] was 40% and the “Mean Arthritic Score” value [14] was 0.88. For the same compound, the “Mean number of affected paws” value [14] was 1.20, the “Radiographic score of individual mice” value (individual mouse, sum of four paws (0-2 each), 100 mpk orally, treated day 30-49, radiographs at day 50, 100 mg/kg) was 2.5 (2×) and 1.0 and 0.0 (2×) and 5.25 and 2.0 (2×) and 3.0 and 4.75 and the “Radiographic score, Median” value (median of 10 mice, 100 mpk orally, treated day 30-49, radiographs at day 50) was 2.25. For the same compound, the “arthritic symptoms (paw swelling, occurrence of ankylosis and deterioration of the joints as observed on radiographs)” value (oral administration to mice with established arthritis) was “reduces the arthritic symptoms”.
